Patent publication US6150359A, “Naphthyridinones for inhibiting protein tyrosine kinase and cell cycle kinase mediated cellular proliferation” (Warner-Lambert Company, priority 2000, dated 2000)
pIC50: −log10 of the molar value.

Assays:
Type in all cases: biochemical
[1] = target: T1, PDGFr (mouse PDGF-β receptor tyrosine kinase) (Mus musculus, UniProt P05622); experiment: PDGFr tyrosine kinase assay, 32P incorporation into glutamate-tyrosine copolymer; conditions: 50 μM ATP
T1 construct: PCR primers are designed to amplify a fragment of DNA that codes for the intracellular tyrosine kinase domain; made in house; host or cells: Sf9 insect cells (baculovirus), cell lysate
T1 sequence (P05622 599-961 limits assumed): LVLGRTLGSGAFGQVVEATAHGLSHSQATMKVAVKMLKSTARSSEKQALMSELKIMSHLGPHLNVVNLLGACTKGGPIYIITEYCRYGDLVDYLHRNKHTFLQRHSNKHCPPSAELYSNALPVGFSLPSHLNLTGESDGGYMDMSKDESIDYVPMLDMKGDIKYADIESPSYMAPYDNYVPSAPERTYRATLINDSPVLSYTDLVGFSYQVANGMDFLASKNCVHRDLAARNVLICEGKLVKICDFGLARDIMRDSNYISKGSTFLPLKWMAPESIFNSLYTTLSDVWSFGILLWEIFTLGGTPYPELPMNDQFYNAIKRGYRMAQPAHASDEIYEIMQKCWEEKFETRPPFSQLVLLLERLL
Protocol: (§1) Platelet Derived Growth Factor Receptor (PDGFr) and Fibroblast Growth Factor Receptor (FGFr). Full length cDNAs for the mouse PDGF-β and human FGF-1 (flg) receptor tyrosine kinases were obtained from J. Escobedo and are prepared as described in J. Biol. Chem., 1991;262:1482-1487. PCR primers are designed to amplify a fragment of DNA that codes for the intracellular tyrosine kinase domain. The fragment is melded into a baculovirus vector, cotransfected with AcMNPV DNA, and the recombinant virus isolated. SF9 insect cells are infected with the virus to overexpress the protein, and the cell lysate is used for the assay.
(§2) PDGFr and FGFr. […] Briefly, to each well is added 82.5 μL of incubation buffer containing 25 mM Hepes (pH 7.0), 150 mM NaCl, 0.1% Triton X-100, 0.2 mM PMSF, 0.2 mM sodium vanadate, 10 mM manganese chloride, and 750 μg/mL of poly (4:1) glutamate-tyrosine followed by 2.5 μL of inhibitor and 5 μL of enzyme lysate (7.5 μg/μL FGFR-TK or 6.0 μg/μL PDGFR-TK) to initiate the reaction. Following a 10 minute incubation at 25° C., 10 μL of [γ^32 P]ATP (0.4 μCi plus 50 μM ATP) is added to each well, and samples are incubated for an additional 10 minutes at 25° C. The reaction is terminated by the addition of 100 μL of 30% trichloroacetic acid (TCA) containing 20 mM sodium pyrophosphate and precipitation of material onto glass fiber filter mats (Wallac). […] Nonspecific activity is defined as radioactivity retained on the filters following incubation of samples with buffer alone; (no enzyme). Specific enzymatic activity is defined as total activity (enzyme plus buffer) minus nonspecific activity.

c-Src = target: T2, c-Src (Homo sapiens, UniProt P12931); experiment: c-Src kinase assay, 32P incorporation into polyglutamate-tyrosine; conditions: 5 μM ATP
T2 construct: made in house; host or cells: baculovirus infected insect cells
T2 sequence (P12931 whole entry, species assumed): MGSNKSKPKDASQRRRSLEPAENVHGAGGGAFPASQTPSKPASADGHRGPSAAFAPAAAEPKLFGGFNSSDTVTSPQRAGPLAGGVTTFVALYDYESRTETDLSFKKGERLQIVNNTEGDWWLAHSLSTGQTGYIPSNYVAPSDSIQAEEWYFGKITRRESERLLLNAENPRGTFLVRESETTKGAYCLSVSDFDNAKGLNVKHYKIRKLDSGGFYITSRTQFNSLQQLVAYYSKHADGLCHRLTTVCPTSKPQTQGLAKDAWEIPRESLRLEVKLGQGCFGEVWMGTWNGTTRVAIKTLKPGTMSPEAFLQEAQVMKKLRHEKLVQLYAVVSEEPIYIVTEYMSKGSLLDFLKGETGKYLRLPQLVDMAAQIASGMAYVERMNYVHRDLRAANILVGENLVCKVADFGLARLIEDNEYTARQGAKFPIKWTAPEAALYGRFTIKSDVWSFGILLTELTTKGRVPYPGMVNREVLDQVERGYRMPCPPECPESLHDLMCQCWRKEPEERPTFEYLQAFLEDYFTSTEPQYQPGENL
Protocol: (§3) Other Kinases. c-Src kinase is purified from baculovirus infected insect cell lysates using an antipeptide monoclonal antibody directed against the N-terminal 2-17 amino acids as described previously by Fry, et al., Anticancer Drug Design, 1994;9:331-351. Protein kinase C (PKC.) is obtained as a rat brain preparation from Promega.
c-Src. The antibody, covalently linked to 0.65-μm latex beads, is added to a suspension of insect cell lysis buffer comprised of 150 mM NaCl, 50 mM Tris pH 7.5, 1 mM DTT, 1% NP-40, 2 mM EGTA, 1 mM sodium vanadate, 1 mM PMSF, 1 μg/mL each of leupeptin, pepstatin, and aprotinin. Insect cell lysate containing the c-Src protein is incubated with these beads for 3 to 4 hours at 4° C. with rotation. At the end of the lysate incubation, the beads are rinsed three times in lysis buffer, resuspended in lysis buffer containing 10% glycerol, and frozen. These latex beads are thawed, rinsed three times in assay buffer which is comprised of 40 mM tris pH 7.5, 5 mM magnesium chloride, and suspended in the same buffer. In a Millipore 96-well plate with a 0.65 μm polyvinylidine membrane bottom are added the reaction components: 10-μL c-Src beads, 10 μL of 2.5 mg/mL polyglutamate-tyrosine substrate, 5 μM ATP containing 0.2 μCi labeled ^32 P-ATP, 5 μL DMSO containing inhibitors or as a solvent control, and buffer to make the final volume 125 μL. The reaction is started at room temperature by addition of the ATP and quenched 10 minutes later by the addition of 125 μL of 30% TCA, 0.1 M sodium pyrophosphate for 15 minutes on ice. The plate is then filtered and the wells washed with two 250-μL aliquots of 15% TCA, 0.1 M pyrophosphate. The filters are punched, counted in a liquid scintillation counter, and the data examined for inhibitory activity in comparison to a known inhibitor such as erbstatin. The method is described more fully in J. Med. Chem., 1994;37:598-609.

[2] = target: T3, EGFr (Human EGF receptor tyrosine kinase) (Homo sapiens, UniProt P00533); experiment: EGFr tyrosine kinase assay; conditions: 10 μM ATP
T3 construct: Human EGF receptor tyrosine kinase is isolated from A431 human epidermoid carcinoma cells; endogenous in cells; host or cells: A431 human epidermoid carcinoma cells (detergent lysate, Q Sepharose fractions)
T3 sequence (P00533 25-1210): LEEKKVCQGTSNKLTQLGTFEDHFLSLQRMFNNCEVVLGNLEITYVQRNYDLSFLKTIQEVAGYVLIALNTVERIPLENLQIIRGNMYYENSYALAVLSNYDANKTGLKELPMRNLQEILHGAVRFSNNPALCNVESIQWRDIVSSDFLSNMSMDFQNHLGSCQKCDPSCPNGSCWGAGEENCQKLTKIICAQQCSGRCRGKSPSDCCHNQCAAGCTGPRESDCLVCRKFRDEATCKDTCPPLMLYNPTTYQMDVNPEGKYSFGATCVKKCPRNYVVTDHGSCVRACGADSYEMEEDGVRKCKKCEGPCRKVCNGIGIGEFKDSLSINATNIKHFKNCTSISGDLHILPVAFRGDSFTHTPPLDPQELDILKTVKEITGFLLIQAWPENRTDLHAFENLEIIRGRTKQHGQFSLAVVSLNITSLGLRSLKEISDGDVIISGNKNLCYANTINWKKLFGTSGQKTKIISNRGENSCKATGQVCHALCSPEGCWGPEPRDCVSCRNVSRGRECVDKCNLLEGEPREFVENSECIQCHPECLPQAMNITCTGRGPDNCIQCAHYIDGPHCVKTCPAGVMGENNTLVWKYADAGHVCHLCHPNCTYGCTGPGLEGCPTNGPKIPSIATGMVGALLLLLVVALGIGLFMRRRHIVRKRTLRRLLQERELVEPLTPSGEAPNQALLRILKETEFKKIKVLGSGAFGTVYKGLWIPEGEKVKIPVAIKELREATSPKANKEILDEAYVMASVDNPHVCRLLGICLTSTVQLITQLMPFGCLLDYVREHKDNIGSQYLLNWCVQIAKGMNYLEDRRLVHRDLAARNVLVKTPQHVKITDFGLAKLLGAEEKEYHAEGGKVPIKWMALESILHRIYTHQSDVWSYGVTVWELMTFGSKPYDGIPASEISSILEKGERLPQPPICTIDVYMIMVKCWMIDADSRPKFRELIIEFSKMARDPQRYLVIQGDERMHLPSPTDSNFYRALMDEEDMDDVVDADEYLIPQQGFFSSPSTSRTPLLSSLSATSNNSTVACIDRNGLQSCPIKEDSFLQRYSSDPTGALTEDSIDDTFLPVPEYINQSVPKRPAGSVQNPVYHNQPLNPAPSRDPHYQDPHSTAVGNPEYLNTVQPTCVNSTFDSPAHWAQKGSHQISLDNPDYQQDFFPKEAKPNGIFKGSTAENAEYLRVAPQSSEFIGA
Protocol: Epidermal Growth Factor Receptor (EGFr). Human EGF receptor tyrosine kinase is isolated from A431 human epidermoid carcinoma cells by the following method. Cells were grown in roller bottles in 50% Dulbecco's Modified Eagle medium and 50% HAM F-12 nutrient media (Gibco) containing 10% fetal calf serum. Approximately 10^9 cells are lysed in two volumes of buffer containing 20 mM 2-(4N-[2-[…]]piperazin-1-yl)ethanesulfonic acid (Hepes), pH 7.4, 5 mM ethylene glycol bis(2-aminoethyl ether) N,N,N',N'-tetraacetic acid (EGTA), 1% Triton X-100, 10% glycerol, 0.1 mM sodium orthovanadate, 5 mM sodium fluoride, 4 mM pyrophosphate, 4 mM benzamide, 1 mM dithiothreitol (DTT), 80 μg/mL aprotinin, 40 μg/mL leupeptin, and 1 mM phenylmethylsulfonyl fluoride (PMSF). After centrifugation at 25,000×g for 10 minutes, the supernatant is applied to a fast Q sepharose column (Pharmacia) and eluted with a linear gradient from 0.1 M NaCl to 0.4 M NaCl in 50 mM Hepes, 10% glycerol, pH 7.4. Enzyme active fractions are pooled, divided into aliquots, and stored at -100° C.
EGFr. Enzyme assays for IC50 determinations are performed in 96-well filter plates (Millipore MADVN6550). The total volume is 0.1 mL containing 20 mM Hepes, pH 7.4, 50 μM sodium vanadate, 40 mM magnesium chloride, 10 μM ATP containing 0.5 μCi of [^32 P]ATP, 20 μg of polyglutamic acid/tyrosine (Sigma Chemical Co., St. Louis, Mo.), 10 ng of EGF receptor tyrosine kinase and appropriate dilutions of inhibitor. All components except the ATP are added to the well, and the plate is incubated with shaking for 10 minutes at 25° C. The reaction is started by adding [^32 P]ATP, and the plate is incubated at 25° C. for 10 minutes. The reaction is terminated by addition of 0.1 mL of 20% trichloroacetic acid (TCA). The plate is kept at 4° C. for at least 15 minutes to allow the substrate to precipitate. The wells are then washed five times with 0.2 mL of 10% TCA, and ^32 P incorporation is determined with a Wallac beta plate counter.

Protein kinase C (PKC) = Protein kinase C (PKC) assay; conditions: rat brain preparation
Protocol: as §3
Other Kinases. An assay using the intracellular kinase domains of insulin receptor (INSr) is performed as described for the EGF receptor except that 10 mM manganese chloride is included in the reaction. The PKC assay is performed as previously described by Martiny-Baron, et al., J. Biol. Chem., 1993;268:9194-9197.

[3] = target: T4, FGFr (human FGF-1 (flg) receptor tyrosine kinase) (Homo sapiens, UniProt P11362); experiment: FGFr tyrosine kinase assay, 32P incorporation into glutamate-tyrosine copolymer; conditions: 50 μM ATP; read-out: FGFr IC50
T4 construct: PCR primers are designed to amplify a fragment of DNA that codes for the intracellular tyrosine kinase domain; made in house; host or cells: Sf9 insect cells (baculovirus), cell lysate
T4 sequence (P11362 478-767 limits assumed): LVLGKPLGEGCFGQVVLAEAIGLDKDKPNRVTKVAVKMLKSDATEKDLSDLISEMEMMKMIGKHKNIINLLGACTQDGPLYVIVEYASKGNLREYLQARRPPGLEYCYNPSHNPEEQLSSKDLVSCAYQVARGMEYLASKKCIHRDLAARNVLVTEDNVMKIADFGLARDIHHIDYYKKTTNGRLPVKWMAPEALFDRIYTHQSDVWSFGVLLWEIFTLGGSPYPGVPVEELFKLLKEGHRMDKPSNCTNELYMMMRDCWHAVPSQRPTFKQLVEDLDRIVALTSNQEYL
Protocol: as §1, §2

pIC50 [1]	pIC50 (c-Src)	pIC50 [3]	Compound	pIC50 [2]	pIC50 (Protein kinase C (PKC))
4.80	4.89	5.43	CCN(CC)CCNc1cc2c(cn1)cc(-c1c(Cl)cccc1Cl)c(=O)n2C [Example D, 3-(2,6-dichlorophenyl)-7-[2-(diethylamino)ethylamino]-1-methyl-1H-[1,6]naphthyridin-2-one]	–	–
6.16	7.70	7.15	CCN(CC)CCCCCNc1cc2c(cn1)cc(-c1c(Cl)cccc1Cl)c(=O)n2C [Example G, 3-(2,6-dichlorophenyl)-7-[5-(diethylamino)pentylamino]-1-methyl-1H-[1,6]naphthyridin-2-one]	–	–
6.07	7.52	–	CN1CCN(CCCCCNc2cc3c(cn2)cc(-c2c(Cl)cccc2Cl)c(=O)n3C)CC1 [Example J, 3-(2,6-dichlorophenyl)-1-methyl-7-[5-(4-methylpiperazin-1-yl)pentylamino]-1H-[1,6]naphthyridin-2-one]	–	–
5.44	6.38	6.47	CNc1cc2c(cn1)cc(-c1c(Cl)cccc1Cl)c(=O)n2C [Example B, 3-(2,6-dichlorophenyl)-1-methyl-7-methylamino-1H-[1,6]naphthyridin-2-one]	–	–
5.77	6.27	–	Cn1c(=O)c(-c2c(Cl)cccc2Cl)cc2cnc(NCCCn3ccnc3)cc21 [Example L, 3-(2,6-dichlorophenyl)-7-[3-(imidazol-1-yl)propylamino]-1-methyl-1H-[1,6]naphthyridin-2-one]	–	–
6.43	7.52	6.74	CCN(CC)CCCOc1ccc(Nc2cc3c(cn2)cc(-c2c(Cl)cccc2Cl)c(=O)n3C)cc1 [Example R, 3-(2,6-dichlorophenyl)-7-[(4-(3-(diethylamino)propoxy)phenyl)amino]-1-methyl-1H-[1,6]naphthyridin-2-one]	–	–
5.40	6.52	6.66	CCN(CC)CCCNc1cc2c(cn1)cc(-c1c(Cl)cccc1Cl)c(=O)n2C [Example E, 3-(2,6-dichlorophenyl)-7-[3-(diethylamino)propylamino]-1-methyl-1H-[1,6]naphthyridin-2-one]	–	–

The remaining lines, values behind:

Compound	pIC50 [1]	pIC50 (c-Src)	pIC50 [3]	pIC50 [2]	pIC50 (Protein kinase C (PKC))
CN1CCN(CCCCNc2cc3c(cn2)cc(-c2c(Cl)cccc2Cl)c(=O)n3C)CC1 [Example I, 3-(2,6-dichlorophenyl)-1-methyl-7-[4-(4-methylpiperazin-1-yl)butylamino]-1H-[1,6]naphthyridin-2-one]	6.02	7.40	–	–	–
Cn1c(=O)c(-c2c(Cl)cccc2Cl)cc2cnc(NCCCN3CCOCC3)cc21 [Example K, 3-(2,6-dichlorophenyl)-1-methyl-7-[3-(4-morpholino)propylamino]-1H-[1,6]naphthyridin-2-one]	5.33	6.44	–	> 4.30	< 4.30
Cn1c(=O)c(-c2c(Cl)cccc2Cl)cc2cnc(N)cc21 [Example A, 7-amino-3-(2,6-dichlorophenyl)-1-methyl-1H-[1,6]naphthyridin-2-one]	5.60	6.46	6.55	–	4.30
Cn1c(=O)c(-c2c(Cl)cccc2Cl)cc2cnc(Nc3ccccc3)cc21 [Example M, 3-(2,6-dichlorophenyl)-1-methyl-7-(phenylamino)-1H-[1,6]naphthyridin-2-one]	6.00	6.10	5.89	> 4.30	< 4.30
COc1ccc(Nc2cc3c(cn2)cc(-c2c(Cl)cccc2Cl)c(=O)n3C)cc1 [Example O, 3-(2,6-dichlorophenyl)-7-[(4-methoxyphenyl)amino]-1-methyl-1H-[1,6]naphthyridin-2-one]	5.77	5.77	5.92	–	–
CN1CCN(CCCOc2ccc(Nc3cc4c(cn3)cc(-c3c(Cl)cccc3Cl)c(=O)n4C)cc2)CC1 [Example T, 3-(2,6-dichlorophenyl)-1-methyl-7-[(4-(3-(4-methylpiperazin-1-yl)propoxy)phenyl)amino]-1H-[1,6]naphthyridin-2-one]	6.43	7.52	–	–	–
Cn1c(=O)c(-c2c(Cl)cccc2Cl)cc2cnc(NCCCCN3CCOCC3)cc21 [Example Q, 3-(2,6-dichlorophenyl)-1-methyl-7-[4-(4-morpholino)butylamino]-1H-[1,6]naphthyridin-2-one]	5.51	7.30	–	–	–
CN1CCN(c2ccc(Nc3cc4c(cn3)cc(-c3c(Cl)cccc3Cl)c(=O)n4C)cc2)CC1 [Example U, 3-(2,6-dichlorophenyl)-1-methyl-7-[(4-(4-methylpiperazin-1-yl)phenyl)amino]-1H-[1,6]naphthyridin-2-one]	6.59	7.70	–	–	–
Cn1c(=O)c(-c2c(Cl)cccc2Cl)cc2cnc(Nc3ccncc3)cc21 [Example N, 3-(2,6-dichlorophenyl)-1-methyl-7-(4-pyridylamino)-1H-[1,6]naphthyridin-2-one]	5.02	6.26	5.48	–	–
